In assay [1] the test system is db/db mice. As to the kind of experiment: Food intake amount and body weight, 5 week-continuous oral administration in drinking water, db/db mice. It is filed as in vivo, mouse. The following applies: enantiomer 1.1 mg/dl in drinking water, oral, 5 weeks; for body weight increase / food intake amount: vs control. As for the experimental part:
5 week-old male C57BL/KsJ-db/db mice (db/db mice: body weight 19 to 25 g, Japan SLC, Inc.) were purchased and individually fed in tip cages. For the db/db mice, normal pellet diet (CE-2) was administered under free water intake and free food intake. A body weight and a food intake amount over 24 hours were measured every day from the start of feeding. On day 3 after the start of feeding, blood was taken from an orbit after 6 hour-fasting and a blood glucose level and a blood insulin concentration were measured. The db/db mice were divided into three groups (10 mice per each group) so that a body weight, a 24 hour-food intake amount, a blood glucose level, and a blood insulin concentration were equal, and defined to be a control group, a low concentration baclofen treated group, and a high concentration baclofen treated group. After division into the groups, from day 5 after the start of feeding, (±)-baclofen was dissolved in drinking water and 5 week-continuous oral administration to the baclofen treated groups was started. (±)-baclofen was dissolved in drinking water at a concentration of 1.1 mg/dl in the low concentration treated group and at a concentration of 2.7 mg/dl in the high concentration treated group. A food intake amount and a body weight were measured over time during the period of 5 week-administration of (±)-baclofen, blood was taken after the end of the 5-week administration, and the db/db mice were sacrificed by cervical luxation. Brains, epididymal white adipose tissues, subcutaneous white adipose tissues and brown adipose tissues were surgically removed. The brains and brown adipose tissues were frozen in dry ice and liquid nitrogen immediately after the removal and then preserved at −80° C. The epididymal white adipose tissues and subcutaneous white adipose tissues were measured in weights, and then fixed in 4% formaldehyde and preserved at 4° C.
5 week-old male C57BL/KsJ-db/db mice (db/db mice: body weight 19 to 25 g, Japan SLC, Inc.) were purchased and individually fed in tip cages. For the db/db mice, normal pellet diet (CE-2) was administered under free water intake and free food intake. A body weight and a food intake amount over 24 hours were measured everyday from the start of feeding. On day 3 after the start of feeding, blood was taken from an orbit after 6 hour-fasting and a blood glucose level and a blood insulin concentration were measured. […] After division into the groups, from day 5 after the start of feeding, R-baclofen and S-baclofen were dissolved in drinking water and 5 week-continuous oral administration was started. […] A food intake amount and a body weight were measured over time, and a rectal temperature was measured 5 weeks after the start of the administration. Blood was taken after the 5-week administration of baclofen, and the db/db mice were sacrificed by cervical luxation.
5 week-old male C57BL/KsJ-db/db mice (db/db mice: body weight 19 to 25 g, Japan SLC, Inc.) were purchased and individually fed in tip cages. Normal pellet diet (CE-2) was administered to the db/db mice under free water intake and free food intake. A body weight and a food intake amount over 24 hours were measured every day from the start of feeding. On day 3 after the start of feeding, blood was taken from an orbit after 6 hour-fasting, and a blood glucose level and a blood insulin concentration were measured. The db/db mice were divided into five groups (10 mice per each group) so that a body weight, a 24 hour-food intake amount, a blood glucose level, and a blood insulin concentration were equal, and defined to be a control group and baclofen treated groups. (±)-baclofen was dissolved in drinking water at respective concentrations of 4×10^−6 M, 10×10^−6 M, 40×10^−6 M, and 100×10^−6 M, and continuously orally administered to the baclofen treated groups for 5 weeks. A food intake amount, a body weight and a water-drinking amount were measured over time during the period of 5 week-administration of (±)-baclofen. […]

Assay [2] has as its system db/db mice. Put plainly: Rectal temperature, oxygen consumption and motor activity, db/db mice. Type of assay: in vivo, mouse. The following applies: enantiomer 1.1 mg/dl in drinking water for 5 weeks, measured at 20 o'clock for 3 days. As for the experimental part:
5 week-old male C57BL/KsJ-db/db mice (db/db mice: body weight 19 to 25 g, Japan SLC, Inc.) were purchased and individually fed in tip cages. For the db/db mice, normal pellet diet (CE-2) was administered under free water intake and free food intake. A body weight and a food intake amount over 24 hours were measured everyday from the start of feeding. On day 3 after the start of feeding, blood was taken from an orbit after 6 hour-fasting and a blood glucose level and a blood insulin concentration were measured. The db/db mice were divided into three groups (10 mice per each group) so that a body weight, a 24 hour-food intake amount, a blood glucose level, and a blood insulin concentration were equal, and defined to be a control group, an R-baclofen treated group, and an S-baclofen treated group. […] After division into the groups, from day 5 after the start of feeding, R-baclofen and S-baclofen were dissolved in drinking water and 5 week-continuous oral administration was started. Both of R-baclofen and S-baclofen were dissolved in drinking water at a concentration of 1.1 mg/dl used in the low concentration treated group in the experiment of baclofen racemic mixture administration. A food intake amount and a body weight were measured over time, and a rectal temperature was measured 5 weeks after the start of the administration. Blood was taken after the 5-week administration of baclofen, and the db/db mice were sacrificed by cervical luxation.
R-baclofen and S-baclofen were administered to db/db/mice and (±)-baclofen was administered to db/^+m mice respectively for 5 weeks, and rectal temperatures were then continuously measured for 3 days at 20 o'clock immediately before the dark period when feed intake was started in the mice. The method of measuring rectal temperatures was as follows. That is, the rectal temperatures were measured by using a digital thermistor (manufactured by NATSUME SEISAKUSHO CO., LTD.).
(±)-baclofen was orally administered to db/db mice and DIO mice for 5 weeks and rectal temperatures were measured 5 weeks after the start of the administration, and oxygen consumptions and motor activity were measured by using a small animal metabolism measuring system (model MK-5000: Muromachi Kikai Co., Ltd.).

Turning to `Cl.NC[C@H](CC(=O)O)c1ccc(Cl)cc1` [R-baclofen, R(+)-Baclofen hydrochloride], in the assay on db/db mice [1], the “time after start of administration from which body weight increase suppression was significant” value was 2 weeks, the “time after start of administration from which food intake suppression was significant” value is 2 weeks, the body weight increase result is “significantly suppressed” and the food intake amount entry is “significantly suppressed”. Also, the rectal temperature result in the assay on db/db mice [2] is on record as “significantly increased”.

In the case of `Cl.NC[C@@H](CC(=O)O)c1ccc(Cl)cc1` [S-baclofen, S(−)-Baclofen hydrochloride], in the assay on db/db mice [1], the “time after start of administration from which body weight increase suppression was significant” value is 5 weeks, the “time after start of administration from which food intake suppression was significant” value was found to be 5 weeks, the body weight increase result is listed as “significant suppression” and the food intake amount entry was “significant suppression”. Further, the rectal temperature entry with db/db mice [2] is recorded as “significantly increased”.
